Reference: publication PMC9856672, “SGC-CAMKK2-1: A Chemical Probe for CAMKK2” (Cells, 2023)

How the values were obtained:
[1] = molecular target: T1, TNK1 (Homo sapiens, UniProt Q13470); experiment: DiscoverX KINOMEscan binding assay at 1 μM, TNK1; conditions: Compound Concentration 1000 nM, read-out: Percent Control
T1 construct: purchased Eurofins DiscoverX KINOMEscan
Text: (§1) Supplement cells-12-00287-s001.zip/File S2. KinomeScan data for the CAMKK2 probe and negative control.xlsx, sheet "SGC-CAMKK2-1" | column: Percent Control

[2] = molecular target: T2, ABL1(M351T)-phosphorylated (Homo sapiens, UniProt P00519, M351T); experiment: KINOMEscan 1 μM, ABL1(M351T)-phosphorylated; type: binding; conditions: 1000 nM; Entrez ABL1; read-out: Percent Control
T2 construct: purchased Eurofins DiscoverX KINOMEscan
Text: as §1

[3] = molecular target: T3, EGFR(L747-E749del, A750P) (Homo sapiens, UniProt P00533, A750P/DEL747-749); experiment: KINOMEscan 1 μM, EGFR(L747-E749del, A750P); type: binding; conditions: 1000 nM; Entrez EGFR; read-out: Percent Control
T3 construct: purchased Eurofins DiscoverX KINOMEscan
T3 sequence (P00533 with tags, fused parts or gaps DEL747-749/A750P limits assumed): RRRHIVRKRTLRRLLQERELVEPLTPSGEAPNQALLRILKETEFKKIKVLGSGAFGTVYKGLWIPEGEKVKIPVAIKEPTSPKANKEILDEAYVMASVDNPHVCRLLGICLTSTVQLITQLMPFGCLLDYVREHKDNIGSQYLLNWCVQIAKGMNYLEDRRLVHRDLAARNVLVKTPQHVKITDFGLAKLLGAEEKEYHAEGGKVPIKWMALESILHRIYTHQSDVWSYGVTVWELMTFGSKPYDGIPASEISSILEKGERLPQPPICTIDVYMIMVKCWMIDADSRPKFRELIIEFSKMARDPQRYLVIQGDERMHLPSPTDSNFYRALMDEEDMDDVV
Text: as §1

[4] = molecular target: T4, ABL1(E255K)-phosphorylated (Homo sapiens, UniProt P00519, E255K); experiment: KINOMEscan 1 μM, ABL1(E255K)-phosphorylated; type: binding; conditions: 1000 nM; Entrez ABL1; read-out: Percent Control
T4 construct: purchased Eurofins DiscoverX KINOMEscan
Text: as §1

[5] = molecular target: T5, CSNK1D (Homo sapiens, UniProt P48730); experiment: KINOMEscan 1 μM, CSNK1D; type: binding; conditions: 1000 nM; Entrez CSNK1D; read-out: Percent Control
T5 construct: purchased Eurofins DiscoverX KINOMEscan
T5 sequence (P48730 whole entry): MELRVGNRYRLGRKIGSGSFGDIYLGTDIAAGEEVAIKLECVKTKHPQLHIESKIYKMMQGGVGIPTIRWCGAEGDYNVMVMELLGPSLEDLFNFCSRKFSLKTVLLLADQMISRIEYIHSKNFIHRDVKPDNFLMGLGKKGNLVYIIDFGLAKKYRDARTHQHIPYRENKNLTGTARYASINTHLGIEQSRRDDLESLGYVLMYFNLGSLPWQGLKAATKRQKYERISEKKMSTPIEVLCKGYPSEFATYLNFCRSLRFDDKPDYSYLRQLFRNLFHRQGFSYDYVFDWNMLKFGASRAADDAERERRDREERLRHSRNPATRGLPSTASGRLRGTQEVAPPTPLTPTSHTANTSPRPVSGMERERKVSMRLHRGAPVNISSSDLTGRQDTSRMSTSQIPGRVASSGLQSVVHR
Text: as §1

[6] = molecular target: T6, EPHB2 (Homo sapiens, UniProt P29323); experiment: KINOMEscan 1 μM, EPHB2; type: binding; conditions: 1000 nM; Entrez EPHB2; read-out: Percent Control
T6 construct: purchased Eurofins DiscoverX KINOMEscan
Text: as §1

[7] = molecular target: T7, STK33 (Homo sapiens, UniProt Q9BYT3); experiment: KINOMEscan 1 μM, STK33; type: binding; conditions: 1000 nM; Entrez STK33; read-out: Percent Control
T7 construct: purchased Eurofins DiscoverX KINOMEscan
Text: as §1

[8] = molecular target: T8, p38-gamma (Homo sapiens, UniProt P53778); experiment: KINOMEscan 1 μM, p38-gamma; type: binding; conditions: 1000 nM; Entrez MAPK12; read-out: Percent Control
T8 construct: purchased Eurofins DiscoverX KINOMEscan
Text: as §1

[9] = molecular target: T9, WNK1 (Homo sapiens, UniProt Q9H4A3); experiment: DiscoverX KINOMEscan binding assay at 1 μM, WNK1; conditions: Compound Concentration 1000 nM, read-out: Percent Control
T9 construct: purchased Eurofins DiscoverX KINOMEscan
Text: as §1

[10] = molecular target: T10, EGFR(E746-A750del) (Homo sapiens, UniProt P00533, DEL746-750); experiment: KINOMEscan 1 μM, EGFR(E746-A750del); type: binding; conditions: 1000 nM; Entrez EGFR; read-out: Percent Control
T10 construct: purchased Eurofins DiscoverX KINOMEscan
Text: as §1

[11] = molecular target: T11, CDK11 (Homo sapiens, UniProt Q9BWU1); experiment: KINOMEscan 1 μM, CDK11; type: binding; conditions: 1000 nM; Entrez CDK19; read-out: Percent Control
T11 construct: purchased Eurofins DiscoverX KINOMEscan
Text: as §1

[12] = molecular target: T12, PAK2 (Homo sapiens, UniProt Q13177); experiment: KINOMEscan 1 μM, PAK2; type: binding; conditions: 1000 nM; Entrez PAK2; read-out: Percent Control
T12 construct: purchased Eurofins DiscoverX KINOMEscan
Text: as §1

[13] = molecular target: T13, ITK (Homo sapiens, UniProt Q08881); experiment: KINOMEscan 1 μM, ITK; type: binding; conditions: 1000 nM; Entrez ITK; read-out: Percent Control
T13 construct: purchased Eurofins DiscoverX KINOMEscan
T13 sequence (Q08881 whole entry): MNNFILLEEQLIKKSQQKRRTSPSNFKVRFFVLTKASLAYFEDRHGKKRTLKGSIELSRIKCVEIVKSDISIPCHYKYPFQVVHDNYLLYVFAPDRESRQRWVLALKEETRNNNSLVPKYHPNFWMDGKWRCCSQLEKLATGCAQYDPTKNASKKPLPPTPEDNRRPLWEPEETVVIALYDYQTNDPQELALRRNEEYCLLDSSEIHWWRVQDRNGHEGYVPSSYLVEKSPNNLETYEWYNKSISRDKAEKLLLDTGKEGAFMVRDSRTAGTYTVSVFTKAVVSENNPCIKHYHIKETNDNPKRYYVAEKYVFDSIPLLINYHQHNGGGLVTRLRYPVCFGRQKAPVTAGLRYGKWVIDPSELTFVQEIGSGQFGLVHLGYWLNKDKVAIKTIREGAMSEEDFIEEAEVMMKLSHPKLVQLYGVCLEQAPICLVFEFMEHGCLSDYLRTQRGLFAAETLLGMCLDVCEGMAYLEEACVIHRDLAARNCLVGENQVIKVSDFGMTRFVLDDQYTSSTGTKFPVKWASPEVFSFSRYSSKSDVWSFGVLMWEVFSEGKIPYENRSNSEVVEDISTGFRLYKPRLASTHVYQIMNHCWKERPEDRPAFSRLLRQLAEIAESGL
Text: as §1

[14] = molecular target: T14, HUNK (Homo sapiens, UniProt P57058); experiment: KINOMEscan 1 μM, HUNK; type: binding; conditions: 1000 nM; Entrez HUNK; read-out: Percent Control
T14 construct: purchased Eurofins DiscoverX KINOMEscan
Text: as §1

[15] = molecular target: T15, ABL1-nonphosphorylated (Homo sapiens, UniProt P00519); experiment: KINOMEscan 1 μM, ABL1-nonphosphorylated; type: binding; conditions: 1000 nM; Entrez ABL1; read-out: Percent Control
T15 construct: purchased Eurofins DiscoverX KINOMEscan
Text: as §1

[16] = tested on: FLT3(ITD); experiment: KINOMEscan 1 μM, FLT3(ITD); type: binding, human; conditions: 1000 nM; Entrez FLT3
Text: as §1

[17] = molecular target: T16, CDK5 (Homo sapiens, UniProt Q00535); experiment: KINOMEscan 1 μM, CDK5; type: binding; conditions: 1000 nM; Entrez CDK5; read-out: Percent Control
T16 construct: purchased Eurofins DiscoverX KINOMEscan
Text: as §1

[18] = molecular target: T17, WNK2 (Homo sapiens, UniProt Q9Y3S1); experiment: KINOMEscan 1 μM, WNK2; type: binding; conditions: 1000 nM; Entrez WNK2; read-out: Percent Control
T17 construct: purchased Eurofins DiscoverX KINOMEscan
Text: as §1

[19] = molecular target: T18, ABL2 (Homo sapiens, UniProt P42684); experiment: KINOMEscan 1 μM, ABL2; type: binding; conditions: 1000 nM; Entrez ABL2; read-out: Percent Control
T18 construct: purchased Eurofins DiscoverX KINOMEscan
Text: as §1

[20] = molecular target: T19, MTOR (Homo sapiens, UniProt P42345); experiment: KINOMEscan binding assay at 1 μM, MTOR; conditions: Compound Concentration 1000 nM; read-out: Percent Control
T19 construct: purchased Eurofins DiscoverX KINOMEscan
Text: (§2) Supplement cells-12-00287-s001.zip/File S2. KinomeScan data for the CAMKK2 probe and negative control.xlsx, sheet "SGC-CAMKK2-1N" | column: Percent Control

[21] = molecular target: T20, CSNK1E (Homo sapiens, UniProt P49674); experiment: KINOMEscan at 1 μM, CSNK1E; type: binding; conditions: 1000 nM, read-out: Percent Control
T20 construct: purchased Eurofins DiscoverX KINOMEscan
Text: as §2

[22] = molecular target: T21, AKT2 (Homo sapiens, UniProt P31751); experiment: KINOMEscan at 1 μM, AKT2; type: binding; conditions: 1000 nM, read-out: Percent Control
T21 construct: purchased Eurofins DiscoverX KINOMEscan
Text: as §2

[23] = molecular target: T22, EPHA1 (Homo sapiens, UniProt P21709); experiment: KINOMEscan at 1 μM, EPHA1; type: binding; conditions: 1000 nM, read-out: Percent Control
T22 construct: purchased Eurofins DiscoverX KINOMEscan
Text: as §2

[24] = molecular target: T23, PCTK1 (Homo sapiens, UniProt Q00536); experiment: KINOMEscan at 1 μM, PCTK1; type: binding; conditions: 1000 nM, read-out: Percent Control
T23 construct: purchased Eurofins DiscoverX KINOMEscan
T23 sequence (Q00536 whole entry): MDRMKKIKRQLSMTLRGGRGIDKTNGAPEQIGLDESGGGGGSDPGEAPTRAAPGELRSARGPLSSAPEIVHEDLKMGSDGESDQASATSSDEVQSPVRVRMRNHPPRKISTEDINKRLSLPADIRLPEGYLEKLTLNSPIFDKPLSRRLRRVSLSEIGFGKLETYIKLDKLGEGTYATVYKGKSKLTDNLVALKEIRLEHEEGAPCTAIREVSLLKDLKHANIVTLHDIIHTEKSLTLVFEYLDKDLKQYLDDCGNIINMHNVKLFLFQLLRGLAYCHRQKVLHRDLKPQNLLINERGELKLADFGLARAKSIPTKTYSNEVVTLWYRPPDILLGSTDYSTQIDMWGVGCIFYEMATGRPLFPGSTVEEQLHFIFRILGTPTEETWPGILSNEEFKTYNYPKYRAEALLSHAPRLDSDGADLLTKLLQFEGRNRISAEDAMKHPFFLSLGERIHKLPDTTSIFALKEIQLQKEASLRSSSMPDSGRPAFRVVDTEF
Text: as §2

[25] = molecular target: T24, HIPK1 (Homo sapiens, UniProt Q86Z02); experiment: KINOMEscan at 1 μM, HIPK1; type: binding; conditions: 1000 nM, read-out: Percent Control
T24 construct: purchased Eurofins DiscoverX KINOMEscan
Text: as §2

[26] = molecular target: T25, NEK2 (Homo sapiens, UniProt P51955); experiment: KINOMEscan at 1 μM, NEK2; type: binding; conditions: 1000 nM, read-out: Percent Control
T25 construct: purchased Eurofins DiscoverX KINOMEscan
Text: as §2

[27] = molecular target: T26, PHKG2 (Homo sapiens, UniProt P15735); experiment: KINOMEscan at 1 μM, PHKG2; type: binding; conditions: 1000 nM, read-out: Percent Control
T26 construct: purchased Eurofins DiscoverX KINOMEscan
Text: as §2

[28] = molecular target: T27, DRAK1 (Homo sapiens, UniProt Q9UEE5); experiment: KINOMEscan at 1 μM, DRAK1; type: binding; conditions: 1000 nM, read-out: Percent Control
T27 construct: purchased Eurofins DiscoverX KINOMEscan
Text: as §2

[29] = molecular target: T28, FLT3 (Homo sapiens, UniProt P36888); experiment: KINOMEscan at 1 μM, FLT3; type: binding; conditions: 1000 nM, read-out: Percent Control
T28 construct: purchased Eurofins DiscoverX KINOMEscan
T28 sequence (P36888 27-993): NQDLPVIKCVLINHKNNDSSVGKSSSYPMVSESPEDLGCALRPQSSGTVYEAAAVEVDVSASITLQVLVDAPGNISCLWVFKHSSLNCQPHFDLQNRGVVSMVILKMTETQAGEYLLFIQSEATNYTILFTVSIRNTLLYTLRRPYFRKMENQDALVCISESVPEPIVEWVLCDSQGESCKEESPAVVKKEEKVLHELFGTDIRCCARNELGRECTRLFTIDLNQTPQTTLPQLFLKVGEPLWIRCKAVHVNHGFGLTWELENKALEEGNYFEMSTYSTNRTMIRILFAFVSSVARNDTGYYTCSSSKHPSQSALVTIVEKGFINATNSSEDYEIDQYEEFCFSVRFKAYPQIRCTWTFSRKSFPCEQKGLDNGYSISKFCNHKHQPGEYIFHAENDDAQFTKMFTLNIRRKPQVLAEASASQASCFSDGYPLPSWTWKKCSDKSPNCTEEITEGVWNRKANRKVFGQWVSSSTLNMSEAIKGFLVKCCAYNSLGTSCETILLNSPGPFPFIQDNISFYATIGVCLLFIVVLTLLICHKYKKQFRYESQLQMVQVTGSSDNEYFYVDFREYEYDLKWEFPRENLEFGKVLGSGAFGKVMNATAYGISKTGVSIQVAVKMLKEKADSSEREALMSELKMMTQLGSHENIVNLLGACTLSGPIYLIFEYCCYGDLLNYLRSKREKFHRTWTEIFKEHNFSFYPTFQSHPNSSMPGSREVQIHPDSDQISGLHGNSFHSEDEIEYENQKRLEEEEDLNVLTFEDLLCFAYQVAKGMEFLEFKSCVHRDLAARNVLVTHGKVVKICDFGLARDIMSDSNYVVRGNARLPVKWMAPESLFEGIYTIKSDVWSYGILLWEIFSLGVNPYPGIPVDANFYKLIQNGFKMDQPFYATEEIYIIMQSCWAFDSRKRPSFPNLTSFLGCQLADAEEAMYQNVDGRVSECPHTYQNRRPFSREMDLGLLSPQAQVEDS
Text: as §2

[30] = molecular target: T5, CSNK1D; experiment: KINOMEscan at 1 μM, CSNK1D; type: binding; conditions: 1000 nM, read-out: Percent Control
Text: as §2

[31] = molecular target: T29, MRCKB (Homo sapiens, UniProt Q9Y5S2); experiment: KINOMEscan binding assay at 1 μM, MRCKB; conditions: Compound Concentration 1000 nM; read-out: Percent Control
T29 construct: purchased Eurofins DiscoverX KINOMEscan
Text: as §2

[32] = molecular target: T30, TEC (Homo sapiens, UniProt P42680); experiment: KINOMEscan at 1 μM, TEC; type: binding; conditions: 1000 nM, read-out: Percent Control
T30 construct: purchased Eurofins DiscoverX KINOMEscan
Text: as §2

[33] = molecular target: T31, TLK1 (Homo sapiens, UniProt Q9UKI8); experiment: KINOMEscan at 1 μM, TLK1; type: binding; conditions: 1000 nM, read-out: Percent Control
T31 construct: purchased Eurofins DiscoverX KINOMEscan
T31 sequence (Q9UKI8 whole entry): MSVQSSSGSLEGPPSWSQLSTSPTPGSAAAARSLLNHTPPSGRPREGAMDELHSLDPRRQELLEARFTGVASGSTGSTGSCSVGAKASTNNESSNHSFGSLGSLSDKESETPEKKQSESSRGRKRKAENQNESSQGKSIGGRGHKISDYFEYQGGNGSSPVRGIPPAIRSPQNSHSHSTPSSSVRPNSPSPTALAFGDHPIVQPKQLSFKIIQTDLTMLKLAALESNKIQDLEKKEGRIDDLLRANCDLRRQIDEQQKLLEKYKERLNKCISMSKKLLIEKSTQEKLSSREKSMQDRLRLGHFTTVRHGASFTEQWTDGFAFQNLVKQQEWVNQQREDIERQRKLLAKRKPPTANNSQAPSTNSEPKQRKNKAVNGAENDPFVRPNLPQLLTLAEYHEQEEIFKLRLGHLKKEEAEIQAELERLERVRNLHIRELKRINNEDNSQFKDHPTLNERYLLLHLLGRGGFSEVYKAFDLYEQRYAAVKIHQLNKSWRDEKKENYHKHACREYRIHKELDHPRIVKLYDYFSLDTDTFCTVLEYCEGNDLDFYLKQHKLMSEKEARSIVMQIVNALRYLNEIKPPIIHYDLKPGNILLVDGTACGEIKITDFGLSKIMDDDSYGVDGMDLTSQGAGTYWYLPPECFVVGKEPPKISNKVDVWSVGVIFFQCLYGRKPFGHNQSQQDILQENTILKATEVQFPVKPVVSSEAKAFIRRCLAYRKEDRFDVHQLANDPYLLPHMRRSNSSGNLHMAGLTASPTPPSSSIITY
Text: as §2

[34] = molecular target: T32, IRAK3 (Homo sapiens, UniProt Q9Y616); experiment: KINOMEscan at 1 μM, IRAK3; type: binding; conditions: 1000 nM, read-out: Percent Control
T32 construct: purchased Eurofins DiscoverX KINOMEscan
T32 sequence (Q9Y616 whole entry): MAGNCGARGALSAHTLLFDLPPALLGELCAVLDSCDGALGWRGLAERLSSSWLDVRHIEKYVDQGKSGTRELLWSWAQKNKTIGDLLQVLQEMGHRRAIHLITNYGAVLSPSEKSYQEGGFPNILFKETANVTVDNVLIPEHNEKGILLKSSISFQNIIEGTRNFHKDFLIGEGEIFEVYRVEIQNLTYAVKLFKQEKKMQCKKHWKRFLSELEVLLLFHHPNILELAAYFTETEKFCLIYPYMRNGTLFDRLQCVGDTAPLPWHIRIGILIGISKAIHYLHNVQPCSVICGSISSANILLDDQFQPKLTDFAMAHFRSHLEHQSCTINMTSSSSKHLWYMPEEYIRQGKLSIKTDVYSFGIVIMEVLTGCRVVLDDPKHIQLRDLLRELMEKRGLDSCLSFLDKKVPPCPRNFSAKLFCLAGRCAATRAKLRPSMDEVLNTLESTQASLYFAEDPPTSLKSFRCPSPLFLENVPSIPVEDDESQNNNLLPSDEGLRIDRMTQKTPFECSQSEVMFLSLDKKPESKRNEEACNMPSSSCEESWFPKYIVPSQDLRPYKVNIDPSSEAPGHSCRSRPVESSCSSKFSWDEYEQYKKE
Text: as §2

T1 sequence (Q13470 whole entry): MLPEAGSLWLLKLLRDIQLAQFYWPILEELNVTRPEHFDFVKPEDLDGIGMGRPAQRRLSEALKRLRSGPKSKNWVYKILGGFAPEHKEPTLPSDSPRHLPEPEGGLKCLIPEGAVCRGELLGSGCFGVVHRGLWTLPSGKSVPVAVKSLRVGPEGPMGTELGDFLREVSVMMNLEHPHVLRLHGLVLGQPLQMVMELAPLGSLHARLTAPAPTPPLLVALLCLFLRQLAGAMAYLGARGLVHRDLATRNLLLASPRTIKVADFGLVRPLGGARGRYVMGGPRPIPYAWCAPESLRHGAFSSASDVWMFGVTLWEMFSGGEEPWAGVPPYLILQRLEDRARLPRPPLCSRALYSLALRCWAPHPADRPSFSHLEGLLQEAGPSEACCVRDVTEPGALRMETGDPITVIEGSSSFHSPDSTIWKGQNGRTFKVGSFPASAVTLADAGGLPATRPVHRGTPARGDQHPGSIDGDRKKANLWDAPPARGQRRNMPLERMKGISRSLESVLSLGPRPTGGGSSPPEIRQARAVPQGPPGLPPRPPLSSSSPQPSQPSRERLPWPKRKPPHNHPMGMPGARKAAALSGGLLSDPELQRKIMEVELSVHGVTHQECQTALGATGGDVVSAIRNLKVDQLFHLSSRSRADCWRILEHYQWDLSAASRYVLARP

How did the remaining binding at 1 µM [1] turn out when Cc1cccc(-c2cnc3occ(-c4ccc(C(=O)O)c(C5CCCC5)c4)c3c2)c1 [SGC-CAMKK2-1 (YL-36)] was run?
The remaining binding at 1 µM was 100%.

And the remaining binding at 1 µM [2]?
Its remaining binding at 1 µM is 100%.

And the remaining binding at 1 µM [3]?
Its remaining binding at 1 µM is 87%.

What about the remaining binding at 1 µM [4] of the same molecule?
Its remaining binding at 1 µM is 98%.

What about the remaining binding at 1 µM [5] of the same molecule?
Its remaining binding at 1 µM is 100%.

And the remaining binding at 1 µM [6]?
Its remaining binding at 1 µM is 100%.

What about the remaining binding at 1 µM [7] of the same molecule?
Its remaining binding at 1 µM is 98%.

And the remaining binding at 1 µM [8]?
Its remaining binding at 1 µM is 82%.

What about the remaining binding at 1 µM [9] of the same molecule?
Its remaining binding at 1 µM is 100%.

What about the remaining binding at 1 µM [10] of the same molecule?
The remaining binding at 1 µM was 100%.

And the remaining binding at 1 µM [11]?
The remaining binding at 1 µM was 98%.

And the remaining binding at 1 µM [12]?
Its remaining binding at 1 µM is 55%.

What about the remaining binding at 1 µM [13] of the same molecule?
Its remaining binding at 1 µM is 100%.

And the remaining binding at 1 µM [14]?
Its remaining binding at 1 µM is 94%.

What about the remaining binding at 1 µM [15] of the same molecule?
Its remaining binding at 1 µM is 95%.

What about the “Percent Control” value [16] of the same molecule?
The value was 100%.

What about the remaining binding at 1 µM [17] of the same molecule?
Its remaining binding at 1 µM is 100%.

And the remaining binding at 1 µM [18]?
Its remaining binding at 1 µM is 67%.

What about the remaining binding at 1 µM [19] of the same molecule?
Its remaining binding at 1 µM is 92%.

Which remaining binding at 1 µM [20] does the source give for O=C(O)c1ccc(-c2coc3ncc(-c4ccccc4)cc23)cc1Cl [SGC-CAMKK2-1N (UNC-YL-83)] here?
Its remaining binding at 1 µM is 100%.

And the remaining binding at 1 µM [21]?
The remaining binding at 1 µM was 92%.

And the remaining binding at 1 µM [22]?
Its remaining binding at 1 µM is 85%.

And the remaining binding at 1 µM [23]?
The remaining binding at 1 µM was 61%.

What about the remaining binding at 1 µM [24] of the same molecule?
The remaining binding at 1 µM was 83%.

What about the remaining binding at 1 µM [25] of the same molecule?
The remaining binding at 1 µM was 44%.

And the remaining binding at 1 µM [26]?
The remaining binding at 1 µM was 97%.

What about the remaining binding at 1 µM [27] of the same molecule?
The remaining binding at 1 µM was 68%.

What about the remaining binding at 1 µM [28] of the same molecule?
The remaining binding at 1 µM was 93%.

What about the remaining binding at 1 µM [29] of the same molecule?
Its remaining binding at 1 µM is 91%.

What about the remaining binding at 1 µM [30] of the same molecule?
The remaining binding at 1 µM was 99%.

What about the remaining binding at 1 µM [31] of the same molecule?
The remaining binding at 1 µM was 100%.

What about the remaining binding at 1 µM [32] of the same molecule?
Its remaining binding at 1 µM is 96%.

What about the remaining binding at 1 µM [33] of the same molecule?
The remaining binding at 1 µM was 92%.

What about the remaining binding at 1 µM [34] of the same molecule?
Its remaining binding at 1 µM is 82%.
